Structures are written as SMILES.

Results on 2 molecules are retold here after paper PMC8023571, “Multiple Applications of a Novel Biarsenical Imaging Probe in Fluorescence and PET Imaging of Melanoma” (Bioconjugate Chemistry, 2021).

The test system of data set [1] is Cys-Cys-Pro-Gly-Cys-Cys (CCPGCC) sequence. Conditions: four As-S bonds with CCPGCC; cited from earlier work. The text has this:
In 1998, Griffin et al. described a system for fluorescent imaging using a biarsenical fluorescein analogue system now widely known as FlAsH.[6] This system relied on a reversible soft Lewis acid–base reaction between As(III) and S(-II) of cysteine. […] Since this sequence is uncommon in natural proteins, it requires installation via genetic alteration of the organism where the protein is expressed; in small peptides, it can be introduced during chemical synthesis. However, as ...

Data set [2] is described as follows: PET measurement of organ distribution in a nonhuman primate. It is filed as in vivo, cynomolgus monkey. The note with it: i.v.; NHP. The procedure:
Second, high background affinity to any organ would severely hamper protein imaging in that organ. In order to test if 1 fulfilled these prerequisites, a […] dynamic PET measurement was performed after an intravenous injection of [^11C]CH3-1, with the upper body of a nonhuman primate subject (NHP) in the field of view. […] The high radioactivity in the liver and the low uptake in the brain likely prohibits the use of 1 for pretargeting in these organs. […] Blood samples were taken at multiple time points during the NHP PET measurements for the purpose of analyzing radiolabeled metabolites in plasma.
Figure 3 (a) Summation PET image of NHP showing the distribution of [^11C]CH3-1 from 3 to 60 min after intravenous injection. (b) Time–activity curves showing organ distribution following intravenous injection of [^11C]CH3-1.
Image- and Statistical Analysis
The acquired list mode data was reconstructed into […] (93 min scan = 4x10 s, 4x20 s, 4x60 s, 7x180 s, 11x360 s). The image reconstruction was made with a fully 3-dimensional maximum-likelihood expectation maximization algorithm (MLEM) with 20 iterations, without scatter and attenuation correction. […] The regional uptake values were expressed as standard uptake value (SUV), which normalizes for injected radioactivity and body weight. […]

On to `O=C(O)c1ccccc1-c1c2ccc(=O)c([As]3SCCS3)c-2oc2c([As]3SCCS3)c(O)ccc12` [FlAsH], for which, in data set [1], the binding constant entry is given as “high binding constant”.

On to `O=c1cc2oc3c([As]4SCCS4)c(O)ccc3c(-c3ccc(F)cc3)c-2cc1[As]1SCCS1` [compound 1], for which, in data set [2], the “background radioactivity in lungs and heart” value is “intermediate background radioactivity”.
